Laboratory results taken from the CheMixHub ionic liquid set.
“And” between values parts separate entries of the source, which are not always exact repeats. Equal values may be shown once.

Experiment: xn = mol fraction of the nth substance listed

CC(C)C[P+](C)(CC(C)C)CC(C)C.Cc1ccc(S(=O)(=O)[O-])cc1 + O
Conditions | viscosity [mPa·s]
293.15 K, 101 kPa, x2 = 0.7599 | 68
293.15 K, 101 kPa, x2 = 0.8779 | 23
293.15 K, 101 kPa, x2 = 0.9283 | 11.6
293.15 K, 101 kPa, x2 = 0.9729 | 4
298.15 K, 100 kPa, x1 = 0.003319 | 1.115
298.15 K, 100 kPa, x1 = 0.00854 | 1.475
308.15 K, 100 kPa, x1 = 0.009239 | 1.175
333.15 K, 100 kPa, x1 = 0.9022 | 221
353.15 K, 100 kPa, x1 = 0.9022 | 79

CCC(=O)[O-].C[n+]1ccn(CCO)c1 + O
100 kPa
Conditions | viscosity [mPa·s]
298.15 K, x1 = 0.7595 | 94.2
298.15 K, x1 = 0.8421 | 117
308.15 K, x1 = 0.8991 | 75.9
318.15 K, x1 = 0.8421 | 40.3
323.15 K, x1 = 0.8083 | 31.9
323.15 K, x1 = 0.8991 | 34.8
328.15 K, x1 = 0.8083 | 27
328.15 K, x1 = 0.9102 | 30.5
333.15 K, x1 = 0.8991 | 23.6

CCCCCCCCCCCCCC[n+]1ccccc1.O=C([O-])C(O)c1ccccc1 + O
electrical conductivity [S/m], 101 kPa
Conditions | 293.15 K | 298.15 K | 303.15 K | 308.15 K | 313.15 K
x1 = 6.85e-06 | 0.00248 | 0.00278 | 0.00309 | 0.0034 | 0.0037
x1 = 1.424e-05 | 0.00472 | 0.00529 | 0.00587 | 0.0065 | 0.0071
x1 = 2.126e-05 | 0.00671 | 0.0076 | 0.0084 | 0.0093 | 0.0101
x1 = 2.811e-05 | 0.0086 | 0.0097 | 0.0108 | 0.0122 | 0.0131
x1 = 3.46e-05 | 0.0103 | 0.0116 | 0.0129 | 0.0145 | 0.0157
x1 = 4.108e-05 | 0.0117 | 0.0131 | 0.0146 | 0.0161 | 0.0179
x1 = 4.811e-05 | 0.0129 | 0.0144 | 0.0161 | 0.0179 | 0.0198
x1 = 5.388e-05 | 0.0137 | 0.0154 | 0.0172 | 0.0191 | 0.0211
x1 = 5.982e-05 | 0.0145 | 0.0163 | 0.0182 | 0.0202 | 0.0224
x1 = 6.559e-05 | 0.0153 | 0.0172 | 0.0192 | 0.0213 | 0.0236
x1 = 7.081e-05 | 0.016 | 0.018 | 0.02 | 0.0223 | 0.0246
x1 = 7.604e-05 | 0.0167 | 0.0187 | 0.0209 | 0.0232 | 0.0258
x1 = 8.072e-05 | 0.0173 | 0.0194 | 0.0217 | 0.0241 | 0.0266

CCCCCCCCCCCCOS(=O)(=O)[O-].CCCC[n+]1ccn(C)c1 + O
Conditions | viscosity [mPa·s]
333 K, 101 kPa, x1 = 0.06262 | 970000

CCCCCCCCCCOS(=O)(=O)[O-].CC[n+]1ccn(C)c1 + O
101 kPa, frequency 0.0005 MHz, x1 = 0.075
Conditions | electrical conductivity [S/m]
308.15 K | 2.87
363.15 K | 6.86

CCCCCCCC[N+](CC)(CC)CC.O=S(=O)([N-]S(=O)(=O)C(F)(F)F)C(F)(F)F + O
101 kPa, x2 = 0.1435
Conditions | viscosity
318.05 K | 36.51 mPa·s and 55.8 mPa·s
323.05 K | 29.74 mPa·s

CCCC[N+](CCCC)(CCCC)Cc1ccccc1.[Cl-] + O
electrical conductivity [S/m], frequency 0.001 MHz
Conditions | 293.15 K | 298.15 K | 303.15 K | 308.15 K | 313.15 K | 318.15 K
100 kPa, x1 = 1.802e-05 | 0.0056 | 0.0105 | 0.0171 | 0.0235 | 0.0329 | –
100 kPa, x1 = 5.406e-05 | 0.0129 | 0.0203 | 0.0243 | 0.0288 | 0.0396 | –
100 kPa, x1 = 9.009e-05 | 0.0172 | 0.0255 | 0.0327 | 0.0349 | 0.0468 | –
101.3 kPa, x1 = 1.802e-05 | – | 0.0104 | – | 0.0139 | – | 0.0173
101.3 kPa, x1 = 5.406e-05 | – | 0.0231 | – | 0.0284 | – | 0.0345
101.3 kPa, x1 = 9.009e-05 | – | 0.0367 | – | 0.0457 | – | 0.0546

viscosity [mPa·s]
Conditions | 293.15 K | 298.15 K | 303.15 K | 308.15 K | 318.15 K
100 kPa, x1 = 1.802e-05 | 0.953 | 0.913 | 0.876 | – | –
100 kPa, x1 = 5.406e-05 | 0.961 | 0.921 | 0.88 | – | –
100 kPa, x1 = 9.009e-05 | 0.972 | 0.93 | – | – | –
101.3 kPa, x1 = 1.802e-05 | – | 0.906 | – | 0.775 | 0.643
101.3 kPa, x1 = 5.406e-05 | – | 0.923 | – | 0.793 | 0.659
101.3 kPa, x1 = 9.009e-05 | – | 0.942 | – | – | –
